Test results as given in patent publication US11066421B1, “Synthetic cinchona alkaloids against cancer” (Ares Pharmaceuticals, LLC, priority 2021, dated 2021).

Columns and labels:
[1] = test system: leukemia-initiating ALL xenograft cells; assay: Leukemia-initiating ALL xenograft cells treated in vitro and reinjected into NOD/SCID mice; format: in vivo, human; conditions: for spleen leukemia burden (nucleated spleen cell count) / spleen size (mean±SE): NOD/SCID mice sacrificed at 85 days
Procedure: Patient derived xenograft mouse models have predictive value for clinical responses (Xu C, Li X, Liu P, Li M and Luo F: Patient-derived xenograft mouse models: A high fidelity tool for individualized medicine (Review). Oncol Lett 17: 3-10, 2019). Xenograft clones isolated from spleens of NOD/SCID mice that developed overt leukemia after inoculation with primary leukemia cells from a B-lineage ALL patient were treated for 24 hours at 37° C. with one of two concentrations of AP-5 (1 μM or 3 μM in phosphate buffered saline [PBS] with 2% DMSO) or vehicle (PBS with 2% DMSO) and then reinjected into NOD/SCID mice (Control group: 9 mice; AP-5 groups: 8 mice per concentration level). Mice were monitored for signs of leukemia, and all mice in a given experiment were sacrificed when any mouse developed morbidity. The animal research in mice was conducted according to approved local IACUC protocols. All animal care procedures conformed to the Guide for the Care and Use of Laboratory Animals (National Research Council, National Academy Press, Washington D.C., USA. Revised 1996). Leukemia cells isolated from deidentified patient specimens were used in the described experiments.
Eight of the 9 control mice challenged with vehicle-treated xenograft cells developed leukemia between 81 and 85 days. All remaining mice were also sacrificed at 85 days. The spleen size and spleen leukemia burden were compared using previously published procedures (F. M. Uckun et al., 2015, J Clin Invest. 125:1006-18). […] The nucleated spleen cell count in these leukemic mice ranged from 192×10^6 to 940×10^6 (median: 576×10^6). The mean±SE values for all 9 control mice was 3.2±0.2 cm for the spleen size and 536.39±94.45×10^6 cells for the spleen leukemia burden (FIG. 4). By comparison, the spleens of mice inoculated with xenograft cells treated with AP-5 at a concentration of 1 μM (mean±SE=1.5±0.1 cm) (P=0.0011) or 3 μM (mean±SE=1.5±0.0 cm) (P=0.0018) were much smaller and contained substantially fewer cells (1 μM group: 7.95±1.11×10^6 cells/P=0.0104; 3 μM group: 5.84±1.07×10^6 cells/P=0.00002). […] FIG. 4 illustrates that AP-5 abrogates the ability of leukemia-initiating ALL xenograft cells to cause leukemia in NOD/SCID mice. The depicted Whisker plots in FIG. 4 represent the median and values (Min to Max. all data points are shown) for spleen size (A), and spleen leukemia burden (B). Kruskall Wallis and Dunn's multiple comparisons test were used for comparing the results among different groups (p<0.05). Statistical significance between groups is shown by the depicted p-values.

[2] = test system: PC3 human prostate cancer cells; assay: CB.17 SCID mouse xenograft model of human prostate cancer; format: in vivo; conditions: 2 mg/kg i.p. twice daily, 5 days on 2 days off
Procedure: Cell Lines. Human prostate cancer cell line PC3 (ATCC CRL-1435) was obtained from American Type Culture Collection (Rockville, Md.) and maintained as a continuous cell line in DMEM supplemented with 10% fetal calf serum (FCS), 4 mm glutamine, 100 units/ml penicillin G, and […] streptomycin sulfate. All of the tissue culture reagents were obtained from Life Technologies, Inc. Inc. (Gaithersburg, Md.). Mice. Female CB.17 SCID mice were obtained from Taconic (Germantown, N.Y.) and housed in a specific-pathogen-free room located in a secure indoor facility with controlled temperature, humidity, and noise levels. Mice were housed in micro-isolator cages and fed with autoclaved rodent chow. Water was also autoclaved and supplemented with trimethoprim/sulfamethoxazol 3 days a week. The animal protocol used in this study was approved by the Drug Discovery Enterprises Animal Care and Use Committee (IACUC), and all of the animal care procedures conformed to the Guide for the Care and Use of Laboratory Animals (National Research Council, National Academy Press, Washington D.C. 1996). […] The size of subcutaneous tumors were measured on day 16 and day 18 to evaluate the ability of AP-8 to inhibit tumor growth in this SCID mouse xenograft model of prostate cancer. Tumor volumes were calculated using the formula for the volume of a prolate spheroid, V=4/3×3.14×length/2×width/2×depth/2.

[3] = xenograft cells treated 24 h with 1 μM
[4] = xenograft cells treated 24 h with 3 μM

Compound | ability of xenograft cells to initiate leukemia in NOD/SCID mice ([1]; low micromolar concentration (1 or 3 μM)) | spleen leukemia burden (nucleated spleen cell count) [1, 3] | spleen size (mean±SE) [1, 3] [cm] | spleen leukemia burden (nucleated spleen cell count) [1, 4] | spleen size (mean±SE) [1, 4] [cm] | tumor progression [2] | average tumor volume ([2]; day 18, from day 7) [mm^3]
2,4,6-Tri (9-O-dihydrocinchoninyl)pyrimidine [AP-5] | capable of abrogating the ability of the putative leukemic stem cell subpopulation of BPL xenograft cells to initiate leukemia | 7.95±1.11 ×10^6 cells | 1.5±0.1 | 5.84±1.07 ×10^6 cells | 1.5±0.0 | – | –
CCC1CN2CCC1CC2C(Oc1cc(OC(c2ccnc3ccc(OC)cc23)C2CC3CCN2CC3CC)nc(OC(c2ccnc3ccc(OC)cc23)C2CC3CCN2CC3CC)n1)c1ccnc2ccc(OC)cc12 (stereo not shown) [AP-8, 2,4,6-Tri (9-O-dihydroquinidinyl)pyrimidine] | – | – | – | – | – | significantly slowed down the tumor progression | 45.1±7.8
